Results: ChEMBL document CHEMBL3856190, “Novel spirothiazamenthane inhibitors of the influenza A M2 proton channel” (Eur J Med Chem, 2016)
Active and inactive are the calls of the source. The calls are words filed in the database; no cut-off is given here.

What was measured:
[1] = Inhibition of Influenza A virus A/udorn/72(H3N2) wild type M2 proton channel expressed in yeast assessed as growth restoration measured after 44 hrs by turbidometric assay; parameters: species or system Influenza A virus (A/udorn/1972(H3N2))
[2] = Cytotoxicity against yeast cells assessed as growth inhibition at 100 uM after 44 hrs by turbidometric assay; format: toxicity, cell-based; conditions: saccharomyces cerevisiae
[3] = tested on: MDCK; assay: Antiviral activity against Influenza A virus A/Puerto Rico/8/34 expressing wild type M2 proton channel infected MDCK cells assessed as inhibition of viral replication at 20 to 100 uM measured after 10 hrs by miniplaque assay; format: functional, cell-based; conditions: Influenza A virus (A/Puerto Rico/8/1934(H1N1))
[4] = Cytotoxicity against yeast cells assessed as growth inhibition after 44 hrs by turbidometric assay; format: toxicity, cell-based; conditions: Saccharomyces cerevisiae
[5] = Cytotoxicity against MDCK cells assessed as reduction in cell viability at 100 uM; format: toxicity, cell-based, Canis lupus familiaris; conditions: dog
[6] = tested on: MDCK; assay: Antiviral activity against amantadine-sensitive Influenza A virus A/Hong Kong/1/68(H3N2) infected in MDCK cells assessed as protection from virus-induced cell death at 1 uM measured after 72 hrs by MTT assay; format: functional, cell-based; conditions: Influenza A virus (A/Hong Kong/1/1968(H3N2))
[7] = Cytotoxicity against MDCK cells at 3 uM measured after 72 hrs by MTT assay; format: toxicity, cell-based, Canis lupus familiaris; conditions: dog
[8] = Antiviral activity against Influenza A virus A/Puerto Rico/8/34 expressing wild type M2 proton channel infected in MDCK cells assessed as inhibition of viral replication measured after 10 hrs by miniplaque assay; format: functional, cell-based, Influenza A virus (A/Puerto Rico/8/1934(H1N1))

Row | SMILES | EC50 [1] | Activity [2] | IC50 at 44 h [4] | further results
1 | CCCCCCCCN1CCN(CCNC2=NC(C)(C)[C@]3(CC[C@H](C)CC3)S2)CC1 | 10 µM | Non-Toxic |  | inhibition [3]: Active
2 | CCCCOc1ccc(CN2CCN(CCNC3=NC(C)(C)[C@]4(CC[C@H](C)CC4)S3)CC2)cc1 |  |  | 3 µM | 
3 | CC1(C)N=C(NCc2ccc(F)cc2)S[C@]12CC[C@@H](C)CC2 |  |  | 30 µM | 
4 | CC1(C)N=C(NCCN2CCCCC2)S[C@]12CC[C@@H](C)CC2 | > 100 µM | Non-Toxic |  | 
5 | CC1(C)N=C(NCc2ccccc2F)S[C@]12CC[C@@H](C)CC2 |  |  | 10 µM | 
6 | CC1(C)N=C(N2CCNCC2)S[C@]12CC[C@@H](C)CC2 | > 100 µM | Non-Toxic |  | 
7 | CC1(C)N=C(NCc2cccnc2)S[C@]12CC[C@@H](C)CC2 | 5 µM | Non-Toxic |  | 
8 | COc1ccc(CNC2=NC(C)(C)[C@]3(CC[C@H](C)CC3)S2)cc1Cl |  |  | > 30 µM | 
9 | CC1(C)N=C(NCCN2CCOCC2)S[C@]12CC[C@@H](C)CC2 | > 100 µM | Non-Toxic |  | 
10 | CC1(C)N=C(NS(=O)(=O)c2ccccc2)S[C@]12CC[C@@H](C)CC2 |  |  | 30 µM | 
11 | CC1(C)N=C(NCc2ccccc2O)S[C@]12CC[C@@H](C)CC2 | 10 µM |  | 100 µM | 
12 | CC1(C)N=C(NCCNc2ccccc2)S[C@]12CC[C@@H](C)CC2 |  |  | 10 µM | 
13 | CC1(C)N=C(NCCN2CCNCC2)S[C@]12CC[C@@H](C)CC2 | 2.6 µM | Non-Toxic |  | 
14 | CN1CCC(CNC2=NC(C)(C)[C@]3(CC[C@H](C)CC3)S2)CC1 | 10 µM | Non-Toxic |  | 
15 | CC1(C)N=C(NCc2cccs2)S[C@]12CC[C@@H](C)CC2 |  |  | 30 µM | 
16 | CCCCN1CCN(CCNC2=NC(C)(C)[C@]3(CC[C@H](C)CC3)S2)CC1 | 3 µM | Non-Toxic |  | inhibition [3]: Active; Activity [5]: Toxic
17 | CC1(C)N=C(NCCN2CCN(S(=O)(=O)c3ccccc3)CC2)S[C@]12CC[C@@H](C)CC2 | 18 µM | Non-Toxic |  | 
18 | CC(C)(C)OC(=O)N1CCN(CCNC2=NC(C)(C)[C@]3(CC[C@H](C)CC3)S2)CC1 |  |  | > 30 µM | 
19 | CC1(C)N=C(NCc2ccc3cc[nH]c3c2)S[C@]12CC[C@@H](C)CC2 |  |  | > 30 µM | 
20 | CN1CCN(C2=NC(C)(C)[C@]3(CC[C@H](C)CC3)S2)CC1 | > 100 µM | Non-Toxic |  | 
21 | CC1(C)N=C(NCCN2CCN(CCO)CC2)S[C@]12CC[C@@H](C)CC2 | 50 µM | Non-Toxic |  | 
22 | CC1(C)N=C(NCCn2ccnc2)S[C@]12CC[C@@H](C)CC2 | > 100 µM | Non-Toxic |  | 

Row | SMILES | EC50 [1] | Activity [2] | IC50 at 44 h [4] | further results
23 | CC1(C)N=C(NCCNCc2ccccc2)S[C@]12CC[C@@H](C)CC2 |  |  | 100 µM | 
24 | COc1cc(F)ccc1CNC1=NC(C)(C)[C@]2(CC[C@H](C)CC2)S1 |  |  | > 30 µM | 
25 | CC(=O)N1CCN(CCNC2=NC(C)(C)[C@]3(CC[C@H](C)CC3)S2)CC1 | 26 µM | Non-Toxic |  | 
26 | CC1(C)N=C(NC(=O)c2ccccc2)S[C@]12CC[C@@H](C)CC2 |  |  | 10 µM | 
27 | Cc1cccnc1NCCNC1=NC(C)(C)[C@]2(CC[C@H](C)CC2)S1 |  |  | 100 µM | 
28 | CC1(C)N=C(NCc2ccc(C#N)cc2)S[C@]12CC[C@@H](C)CC2 |  |  | 100 µM | 
29 | CC1(C)N=C(NCc2cc(-c3ccccc3)on2)S[C@]12CC[C@@H](C)CC2 |  |  | 10 µM | 
30 | CC1(C)N=C(N)S[C@]12CC[C@@H](C)CC2 | 0.03 µM | Non-Toxic |  | Activity [6]: Active; Activity [7]: Non-Toxic; EC50 [8]: 0.02 µM
31 | CC1(C)N=C(N2CCOCC2)S[C@]12CC[C@@H](C)CC2 | 0.7 µM | Non-Toxic |  | 
32 | CC(C)N1CCN(CCNC2=NC(C)(C)[C@]3(CC[C@H](C)CC3)S2)CC1 | 30 µM | Non-Toxic |  | 
33 | CC1(C)N=C(NCC2CCNCC2)S[C@]12CC[C@@H](C)CC2 | > 100 µM | Non-Toxic |  | 
34 | CN1CCN(CCNC2=NC(C)(C)[C@]3(CC[C@H](C)CC3)S2)CC1 | 3 µM | Non-Toxic |  | inhibition [3]: Active
35 | CC1(C)N=C(NCCc2ccccn2)S[C@]12CC[C@@H](C)CC2 | 3 µM | Non-Toxic |  | 
36 | COc1cccc(CNC2=NC(C)(C)[C@]3(CC[C@H](C)CC3)S2)c1 |  |  | 30 µM | 
37 | COc1ccc(CNC2=NC(C)(C)[C@]3(CC[C@H](C)CC3)S2)c(OC)c1 | > 30 µM |  | 100 µM | 
38 | CC1(C)N=C(NCc2ccc(O)c(F)c2)S[C@]12CC[C@@H](C)CC2 | 10 µM |  | > 30 µM | 
39 | COc1ccc(CNC2=NC(C)(C)[C@]3(CC[C@H](C)CC3)S2)cc1F |  |  | 100 µM | 
40 | CC1(C)N=C(NCc2ccncc2)S[C@]12CC[C@@H](C)CC2 | 2 µM | Non-Toxic |  | 
41 | CC(C)CCN1CCN(CCNC2=NC(C)(C)[C@]3(CC[C@H](C)CC3)S2)CC1 | 10 µM | Non-Toxic |  | inhibition [3]: Active; Activity [5]: Toxic
42 | CC1(C)N=C(NCc2cccc(O)c2)S[C@]12CC[C@@H](C)CC2 | > 40 µM | Non-Toxic |  | 
43 | CC1(C)N=C(NCCc2cccnc2)S[C@]12CC[C@@H](C)CC2 | 0.9 µM | Non-Toxic |  | 
44 | COc1ccc(C(=O)NC2=NC(C)(C)[C@]3(CC[C@H](C)CC3)S2)cc1 |  |  | 10 µM | 

Row | SMILES | EC50 [1] | Activity [2] | IC50 at 44 h [4] | further results
45 | CC1(C)N=C(NCCN2CCN(S(C)(=O)=O)CC2)S[C@]12CC[C@@H](C)CC2 |  | Non-Toxic |  | 
46 | Cc1cnc(CN2CCN(CCNC3=NC(C)(C)[C@]4(CC[C@H](C)CC4)S3)CC2)cn1 | 20 µM |  | 100 µM | 
47 | CC1(C)N=C(NCCc2ccncc2)S[C@]12CC[C@@H](C)CC2 | > 100 µM | Non-Toxic |  | 
48 | CC1(C)N=C(NCCN2CCCC2)S[C@]12CC[C@@H](C)CC2 | 8 µM | Non-Toxic |  | 
49 | CC1(C)N=C(NCCn2cccc2)S[C@]12CC[C@@H](C)CC2 |  |  | 100 µM | 
50 | COc1ccc(CNC2=NC(C)(C)[C@]3(CC[C@H](C)CC3)S2)cc1OC |  | Non-Toxic |  | 
51 | CC1(C)N=C(NCCN2CCN(Cc3ccccc3)CC2)S[C@]12CC[C@@H](C)CC2 | 0.6 µM |  | > 30 µM | inhibition [3]: Active; Activity [5]: Toxic
52 | COc1ccc(C(=O)NC2=NC(C)(C)[C@]3(CC[C@H](C)CC3)S2)c(OC)c1 |  |  | 3 µM | 
53 | CC1(C)N=C(NCc2ccccc2)S[C@]12CC[C@@H](C)CC2 |  |  | 10 µM | 
54 | COc1ccccc1CNC1=NC(C)(C)[C@]2(CC[C@H](C)CC2)S1 |  |  | 10 µM | 
55 | CC1(C)N=C(NCc2ccc3c(c2)OCO3)S[C@]12CC[C@@H](C)CC2 |  |  | > 30 µM | 
56 | CC1(C)N=C(NCc2cccc(F)c2)S[C@]12CC[C@@H](C)CC2 |  |  | 10 µM | 
57 | COCCNC1=NC(C)(C)[C@]2(CC[C@H](C)CC2)S1 |  | Non-Toxic |  | 
58 | CN(C)CCNC1=NC(C)(C)[C@]2(CC[C@H](C)CC2)S1 | 100 µM | Non-Toxic |  | 
59 | CN(C)CCN1CCN(CCNC2=NC(C)(C)[C@]3(CC[C@H](C)CC3)S2)CC1 | 70 µM | Non-Toxic |  | inhibition [3]: Active
60 | CC1(C)N=C(NCc2ccco2)S[C@]12CC[C@@H](C)CC2 |  |  | > 30 µM | 
61 | CCOCCN1CCN(CCNC2=NC(C)(C)[C@]3(CC[C@H](C)CC3)S2)CC1 | 2.1 µM | Non-Toxic |  | inhibition [3]: Active
62 | COc1ccc(CNC2=NC(C)(C)[C@]3(CC[C@H](C)CC3)S2)cc1 |  |  | 30 µM | 
63 | CC1(C)N=C(NCc2ccccn2)S[C@]12CC[C@@H](C)CC2 | 10 µM | Non-Toxic |  | 
64 | CC1(C)N=C(NCCN2CCN(CC3CCCCC3)CC2)S[C@]12CC[C@@H](C)CC2 | 20 µM | Non-Toxic |  | 
65 | CC1(C)N=C(N2CCCCC2)S[C@]12CC[C@@H](C)CC2 | 10 µM | Non-Toxic |  | 
66 | CCN1CCN(CCNC2=NC(C)(C)[C@]3(CC[C@H](C)CC3)S2)CC1 | > 30 µM |  | 100 µM | 
